Read-outs that look alike come from different tables or passages of the source.
Tests used:
[1] = biological target: CDK1/Cyclin B1 (Homo sapiens, UniProt P06493); experiment: CDK1/Cyclin B1 TR-FRET biochemical assay (0.015 mM ATP); settings: 120 minutes reaction
Experimental: (§1) Compounds disclosed herein were tested for inhibition of CDK2/Cyclin E1 or CDK1/Cyclin B1 kinase in an assay based on the time-resolved fluorescence-resonance energy transfer (TR-FRET) methodology. The assay was carried out in 384-well low volume black plates in a reaction mixture containing CDK2/Cyclin E1 or CDK1/Cyclin B1, 0.060 mM ATP for CDK2/Cyclin E1 or 0.015 mM ATP for CDK1/Cyclin B1, 0.15 μM Rb (Ser780)-biotin substrate and 0-10 μM compound in buffer containing 50 mM HEPES pH7.0, 0.02% NaN3, 0.01% BSA, 0.1 mM Orthovanadate, 50 mM MgCl2, 1 mM DTT and 0.005% Tween-20. The kinase was incubated with compound for 60 minutes at room temperature and the reaction was initiated by the addition of ATP and Rb (Ser780)-biotin substrate. After reaction at room temperature for 120 minutes, an equal volume of stop/detection solution was added according to the manufacture's instruction (Cisbio Bioassays). The stop/detection solution contained Streptavidin-XL665 and Anti-pRb (Ser780) mAb-Eu Cryptate in Detection buffer (Cisbio Bioassays). Plates were incubated at room temperature for 60 minutes, and the TR-FRET signals (ex337 nm, em665 nm/620 nm) were recorded on a PHERAstar FSX plate reader (BMG Labtech). The inhibition percentage of CDK2/Cyclin E1 or CDK1/Cyclin B1 kinase activity in presence of increasing concentrations of compounds was calculated based on the ratio of fluorescence at 665 nm to that at 620 nm. The IC50 for each compound was derived from fitting the data to the four-parameter logistic equation by Dotmatics.

[2] = tested on: HEK-293 cells; experiment: HEK-293 cell cytotoxicity detection (CellTiter-Glo); assay type: cell-based; settings: incubation of 72 h, CellTiter-Glo luminescence
Experimental: HEK-293 cells were treated with compounds diluted in 0.4% DMSO, dilution was done according to the following protocol: (1) making 250× stock solution in DMSO from 10 mM by 4-fold dilution, total 8 doses were included; (2) making 2 solution in cell culture medium by transferring 1 μl 250× stock solution into 124 μl medium; (3) adding 50 μl of 2× solution to cells for incubation of 72 h.
25 μl of the CellTiter-Glo® Reagent [(PromegaCat #G9242)] was added to each well in the 96-well plate. The contents were mixed for 2 minutes on an orbital shaker to induce cell lysis. The plate was then allowed to incubate at room temperature for 10 minutes to stabilize luminescent signal. Luminescence was recorded on BMG PheraStar with luminescence protocol.
The IC50 value of a compound can be obtained by fitting the following equation: […]
Wherein, X and Y are known values, and IC50, Hillslope, Top and Bottom are the parameters obtained by fitting with software. Y is the inhibition percentage (calculated from the equation), X is the concentration of the compound; IC50 is the concentration of the compound when the 50% inhibition is reached. The smaller the IC50 value is, the stronger the inhibitory ability of the compound is. Vice versa, the higher the IC50 value is, the weaker the ability the inhibitory ability of the compound is; Hillslope represents the slope of the fitted curve, generally around 1*; Bottom represents the minimum value of the curve obtained by data fitting, which is generally 0%±20%; Top represents the maximum value of the curve obtained by data fitting, which is generally 100%±20%. The experimental data were fitted by calculating and analyzing with Dotmatics data analysis software.

[3] = biological target: CDK2/Cyclin E1 (Homo sapiens, UniProt P24941); experiment: CDK2/Cyclin E1 TR-FRET biochemical assay (0.060 mM ATP); settings: 120 minutes reaction
Experimental: as §1

Sequence of CDK1/Cyclin B1 (P06493 whole entry): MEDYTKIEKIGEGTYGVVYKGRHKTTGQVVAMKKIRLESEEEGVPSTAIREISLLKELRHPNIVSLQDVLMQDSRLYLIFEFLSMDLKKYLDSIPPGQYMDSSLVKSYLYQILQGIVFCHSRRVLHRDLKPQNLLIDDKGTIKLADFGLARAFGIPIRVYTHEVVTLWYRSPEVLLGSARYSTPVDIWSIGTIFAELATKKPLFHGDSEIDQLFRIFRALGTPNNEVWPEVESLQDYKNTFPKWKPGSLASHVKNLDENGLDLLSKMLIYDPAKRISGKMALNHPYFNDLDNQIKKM
Sequence of CDK1/Cyclin B1 (P14635 whole entry partner): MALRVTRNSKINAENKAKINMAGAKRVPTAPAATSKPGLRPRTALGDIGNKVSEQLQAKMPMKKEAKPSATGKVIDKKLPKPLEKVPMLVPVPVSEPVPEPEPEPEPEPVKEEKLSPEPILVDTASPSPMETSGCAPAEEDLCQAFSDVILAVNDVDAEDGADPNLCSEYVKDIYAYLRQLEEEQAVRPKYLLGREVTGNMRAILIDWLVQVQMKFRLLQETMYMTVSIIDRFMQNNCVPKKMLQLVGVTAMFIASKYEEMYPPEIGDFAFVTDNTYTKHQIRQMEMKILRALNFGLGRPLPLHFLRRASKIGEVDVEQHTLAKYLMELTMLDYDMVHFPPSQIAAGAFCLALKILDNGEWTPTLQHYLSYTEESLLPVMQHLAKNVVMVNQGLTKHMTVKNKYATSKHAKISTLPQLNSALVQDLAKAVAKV

Row | Compound | IC50 [1] | IC50 ([2]; Homo sapiens, HEK293, 72 h) | IC50 [3] | IC50 ([2]; read-out: HEK293 IC50)
1 | CC1(NC(=O)O[C@H]2CC[C@@H](c3cc(Nc4ccc5c(c4F)S(=O)(=O)CC5)n[nH]3)C2)CC1 (relative stereo) [Example 6, cis-3-(3-((7-fluoro-1,1-dioxido-2,3-dihydrobenzo[b]thiophen-6-yl)amino)-1H-pyrazol-5-yl)cyclopentyl (1-methylcyclopropyl)carbamate] | 20 nM | 440 nM | 1.1 nM | 
2 | CCCNC(=O)OC1CCC(c2cc(Nc3ccc4c(c3F)CS(=O)(=O)C4)n[nH]2)C1 (single isomer, unassigned) [Example 9a, cis-3-(3-((4-fluoro-2,2-dioxido-1,3-dihydrobenzo[c]thiophen-5-yl)amino)-1H-pyrazol-5-yl)cyclopentyl propylcarbamate] | 50 nM |  | 0.8 nM | > 10000 nM
3 | CCCNC(=O)OC1CCC(c2cc(Nc3ccc4c(c3F)CS(=O)(=O)C4)n[nH]2)C1 (single isomer, unassigned) [Example 9b, cis-3-(3-((4-fluoro-2,2-dioxido-1,3-dihydrobenzo[c]thiophen-5-yl)amino)-1H-pyrazol-5-yl)cyclopentyl propylcarbamate] | 12 nM |  | 0.7 nM | 4410 nM
4 | CC(C)NC(=O)O[C@H]1CC[C@@H](c2cc(Nc3ccc4c(c3)CS(=O)(=O)C4)n[nH]2)C1 (relative stereo) [Example 7, cis-3-(3-((2,2-dioxido-1,3-dihydrobenzo[c]thiophen-5-yl)amino)-1H-pyrazol-5-yl)cyclopentyl isopropylcarbamate] | 12 nM | 684 nM | 1.1 nM | 
5 | CC1(NC(=O)O[C@H]2CC[C@@H](c3cc(Nc4ccc5c(c4F)CS(=O)(=O)C5)n[nH]3)C2)CC1 (relative stereo) [Example 11, cis-3-(3-((4-fluoro-2,2-dioxido-1,3-dihydrobenzo[c]thiophen-5-yl)amino)-1H-pyrazol-5-yl)cyclopentyl (1-methylcyclopropyl)carbamate] | 3.3 nM | 317 nM | 0.3 nM | 
6 | CC[C@H](C)NC(=O)OC1CCC(c2cc(Nc3ccc4c(c3F)S(=O)(=O)CC4)n[nH]2)C1 (stereo in doubt) [Example 5, cis-3-(3-((7-fluoro-1,1-dioxido-2,3-dihydrobenzo[b]thiophen-6-yl)amino)-1H-pyrazol-5-yl)cyclopentyl ((S)-sec-butyl)carbamate] | 117 nM | 1650 nM | 5 nM | 
7 | CC[C@H](C)NC(=O)OC1CCC(c2cc(Nc3ccc4c(c3F)CS(=O)(=O)C4)n[nH]2)C1 (stereo in doubt) [Example 10, cis-3-(3-((4-fluoro-2,2-dioxido-1,3-dihydrobenzo[c]thiophen-5-yl)amino)-1H-pyrazol-5-yl)cyclopentyl ((S)-sec-butyl)carbamate] | 5 nM | 203 nM | 0.4 nM | 
8 | CC(C)NC(=O)OC1CCC(c2cc(Nc3ccc4c(c3F)S(=O)(=O)CC4)n[nH]2)C1 (single isomer, unassigned) [Example 3b, cis-3-(3-((7-fluoro-1,1-dioxido-2,3-dihydrobenzo[b]thiophen-6-yl)amino)-1H-pyrazol-5-yl)cyclopentyl isopropylcarbamate] | 31 nM |  | 1.9 nM | 677 nM
9 | CC(C)NC(=O)O[C@@H]1CC[C@H](c2cc(Nc3ccc4c(c3F)CS(=O)(=O)C4)n[nH]2)C1 (single isomer, unassigned) [Example 8a, cis-3-(3-((4-fluoro-2,2-dioxido-1,3-dihydrobenzo[c]thiophen-5-yl)amino)-1H-pyrazol-5-yl)cyclopentyl isopropylcarbamate] | 30 nM | 514 nM | 0.7 nM | 
10 | CC(C)NC(=O)O[C@H]1CC[C@@H](c2cc(Nc3cc4c(cc3F)S(=O)(=O)CC4)n[nH]2)C1 (relative stereo) [Example 1, cis-3-(3-((6-fluoro-1,1-dioxido-2,3-dihydrobenzo[b]thiophen-5-yl)amino)-1H-pyrazol-5-yl)cyclopentyl isopropylcarbamate] | 1140 nM | > 10000 nM | 49 nM | 
11 | COCC(C)(C)NC(=O)O[C@H]1CC[C@@H](c2cc(Nc3ccc4c(c3F)CS(=O)(=O)C4)n[nH]2)C1 (relative stereo) [Example 14, cis-3-(3-((4-fluoro-2,2-dioxido-1,3-dihydrobenzo[c]thiophen-5-yl)amino)-1H-pyrazol-5-yl)cyclopentyl (1-methoxy-2-methylpropan-2-yl)carbamate] | 10 nM | > 10000 nM | 0.6 nM | 
12 | CC(C)NC(=O)OC1CCC(c2cc(Nc3ccc4c(c3F)S(=O)(=O)CC4)n[nH]2)C1 (single isomer, unassigned) [Example 3a, cis-3-(3-((7-fluoro-1,1-dioxido-2,3-dihydrobenzo[b]thiophen-6-yl)amino)-1H-pyrazol-5-yl)cyclopentyl isopropylcarbamate] | 132 nM |  | 4.1 nM | 1780 nM

From patent publication US20260176282A1, “BICYCLIC COMPOUNDS AS CDK INHIBITORS” (BEONE MEDICINES I GMBH, priority 2023, published 2026)
